Assay results from patent publication US20240239767A1 (AstraZeneca AB, priority 2022, published 2024).

How the values were obtained:
[1] = target: T1, potassium ion channel hERG (human Ether-á-go-go-Related Gene) (Homo sapiens, UniProt Q12809); test: Assay 5 - hERG assay (SyncroPatch 384PE patch clamp, CHO cells); assay type: cell-based; details: geometric mean, CHO cells over-expressing hERG, read-out: Assay 5 (hERG Hu CHO IF EPh CR-Syncro) GMean IC50
T1 construct: expressed in transfected cells; host or cells: Chinese hamster ovary K1 (CHO)
T1 sequence (Q12809 whole entry): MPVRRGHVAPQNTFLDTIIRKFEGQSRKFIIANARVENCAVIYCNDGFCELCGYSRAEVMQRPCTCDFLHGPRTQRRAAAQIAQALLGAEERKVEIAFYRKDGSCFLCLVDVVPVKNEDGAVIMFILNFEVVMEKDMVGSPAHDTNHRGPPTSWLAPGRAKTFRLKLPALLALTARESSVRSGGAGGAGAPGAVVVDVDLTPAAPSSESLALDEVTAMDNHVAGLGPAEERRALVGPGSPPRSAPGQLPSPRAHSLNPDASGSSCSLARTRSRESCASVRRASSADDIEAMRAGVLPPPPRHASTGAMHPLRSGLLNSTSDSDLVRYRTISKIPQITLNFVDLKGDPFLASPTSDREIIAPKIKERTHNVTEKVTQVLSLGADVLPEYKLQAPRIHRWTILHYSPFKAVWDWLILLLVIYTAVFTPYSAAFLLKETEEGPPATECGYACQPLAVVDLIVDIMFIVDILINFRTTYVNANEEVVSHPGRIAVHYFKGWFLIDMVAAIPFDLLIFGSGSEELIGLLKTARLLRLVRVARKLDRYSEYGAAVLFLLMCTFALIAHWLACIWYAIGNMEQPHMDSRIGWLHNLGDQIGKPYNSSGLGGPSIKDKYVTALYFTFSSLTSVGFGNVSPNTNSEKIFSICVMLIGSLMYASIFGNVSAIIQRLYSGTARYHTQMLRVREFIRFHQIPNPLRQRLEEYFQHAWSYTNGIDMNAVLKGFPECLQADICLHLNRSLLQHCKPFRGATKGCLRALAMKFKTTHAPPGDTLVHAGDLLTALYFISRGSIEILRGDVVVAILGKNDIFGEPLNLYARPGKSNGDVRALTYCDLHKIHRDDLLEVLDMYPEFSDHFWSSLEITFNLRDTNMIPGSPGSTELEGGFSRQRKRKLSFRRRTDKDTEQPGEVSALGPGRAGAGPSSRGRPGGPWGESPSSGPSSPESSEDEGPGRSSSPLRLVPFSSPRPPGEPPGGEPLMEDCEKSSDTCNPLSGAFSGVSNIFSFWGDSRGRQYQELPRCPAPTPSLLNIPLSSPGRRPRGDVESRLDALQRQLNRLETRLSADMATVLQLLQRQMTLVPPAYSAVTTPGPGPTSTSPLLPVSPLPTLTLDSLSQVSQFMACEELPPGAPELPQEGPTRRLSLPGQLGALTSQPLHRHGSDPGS
Summary of the method: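 Automated whole-cell patch clamp at room temperature on CHO-K1 cells over-expressing hERG, using K-fluoride/escin internal solution (pH 7.2) and NMDG-containing external solution (pH 7.4). Compounds were tested in a 6-point cumulative format, 0.33% final DMSO. Wells accepted only with seal >30 MegaOhm, Z′>0.4 and current >0.2 nA.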

[2] = target: GSK3b (Glycogen synthase kinase-3 beta) (Homo sapiens, UniProt P49841); test: Assay 6 - GSK3b assay (ThermoFisher, FRET Z-Lyte); assay type: biochemical; details: geometric mean; ATP Conc: 10.000 μM; read-out: Assay 6 (GSK3B FRET-Z-Lyte CR) GMean IC50 (μM) ATP Conc: 10.000
Sequence of GSK3b (Glycogen synthase kinase-3 beta) (P49841 whole entry): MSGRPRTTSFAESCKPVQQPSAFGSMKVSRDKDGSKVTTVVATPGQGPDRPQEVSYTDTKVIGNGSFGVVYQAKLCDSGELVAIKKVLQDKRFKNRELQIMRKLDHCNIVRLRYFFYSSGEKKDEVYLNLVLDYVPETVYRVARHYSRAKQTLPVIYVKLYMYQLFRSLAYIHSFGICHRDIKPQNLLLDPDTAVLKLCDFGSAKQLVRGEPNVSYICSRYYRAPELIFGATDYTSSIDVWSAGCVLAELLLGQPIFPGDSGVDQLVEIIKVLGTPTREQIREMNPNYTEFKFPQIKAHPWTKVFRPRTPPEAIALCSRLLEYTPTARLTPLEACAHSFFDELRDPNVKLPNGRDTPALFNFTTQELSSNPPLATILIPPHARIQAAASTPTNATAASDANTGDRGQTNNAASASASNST
Summary of the method: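 Z-Lyte FRET kinase assay: 0.22-0.92 ng GSK3β with 2 μM Ser/Thr 09 peptide in 50 mM HEPES pH 7.5, 10 mM MgCl2, 1 mM EGTA, 0.01% BRIJ-35, 60 min at room temperature, then 60 min development. Compounds in 1% DMSO, 10-point 3-fold dilutions from 10 μM; sigmoidal dose-response fit.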

[3] = target: T2, PCSK9 (Homo sapiens, UniProt Q8NBP7, G670E/V474I); test: biochemical
Target sequence in this assay (Q8NBP7 with tags, fused parts or gaps V474I/G670E): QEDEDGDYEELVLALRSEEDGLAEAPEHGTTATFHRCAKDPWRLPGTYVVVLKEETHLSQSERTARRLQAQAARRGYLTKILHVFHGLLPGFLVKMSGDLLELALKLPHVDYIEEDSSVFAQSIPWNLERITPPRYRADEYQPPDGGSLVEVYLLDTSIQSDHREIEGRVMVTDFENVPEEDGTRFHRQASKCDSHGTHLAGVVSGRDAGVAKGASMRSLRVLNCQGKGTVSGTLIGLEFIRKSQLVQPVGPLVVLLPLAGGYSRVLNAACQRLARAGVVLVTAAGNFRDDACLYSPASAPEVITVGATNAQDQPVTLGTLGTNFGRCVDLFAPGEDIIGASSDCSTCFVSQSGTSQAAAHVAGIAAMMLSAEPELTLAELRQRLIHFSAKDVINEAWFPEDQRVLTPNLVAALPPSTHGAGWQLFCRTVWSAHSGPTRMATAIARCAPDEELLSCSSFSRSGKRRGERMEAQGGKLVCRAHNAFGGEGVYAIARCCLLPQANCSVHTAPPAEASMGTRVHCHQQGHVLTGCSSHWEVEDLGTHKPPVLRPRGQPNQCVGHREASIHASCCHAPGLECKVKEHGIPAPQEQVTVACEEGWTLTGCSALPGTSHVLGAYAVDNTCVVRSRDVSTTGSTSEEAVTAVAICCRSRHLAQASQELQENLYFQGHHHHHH

[4] = target: PCSK9 (Homo sapiens, UniProt Q8NBP7); test: Assay 2 - Biophysical human PCSK9 assay (SPR, Biacore); assay type: binding; parameters: biotinylated human PCSK9 (31-692)-Avi-His6; details: geometric mean; SPR single-cycle kinetics, 30° C.; read-out: Assay 2 (PCSK9 BIAcore DBA CR) GMean Kd
Sequence of PCSK9 (Homo sapiens, UniProt Q8NBP7) (Q8NBP7 31-692): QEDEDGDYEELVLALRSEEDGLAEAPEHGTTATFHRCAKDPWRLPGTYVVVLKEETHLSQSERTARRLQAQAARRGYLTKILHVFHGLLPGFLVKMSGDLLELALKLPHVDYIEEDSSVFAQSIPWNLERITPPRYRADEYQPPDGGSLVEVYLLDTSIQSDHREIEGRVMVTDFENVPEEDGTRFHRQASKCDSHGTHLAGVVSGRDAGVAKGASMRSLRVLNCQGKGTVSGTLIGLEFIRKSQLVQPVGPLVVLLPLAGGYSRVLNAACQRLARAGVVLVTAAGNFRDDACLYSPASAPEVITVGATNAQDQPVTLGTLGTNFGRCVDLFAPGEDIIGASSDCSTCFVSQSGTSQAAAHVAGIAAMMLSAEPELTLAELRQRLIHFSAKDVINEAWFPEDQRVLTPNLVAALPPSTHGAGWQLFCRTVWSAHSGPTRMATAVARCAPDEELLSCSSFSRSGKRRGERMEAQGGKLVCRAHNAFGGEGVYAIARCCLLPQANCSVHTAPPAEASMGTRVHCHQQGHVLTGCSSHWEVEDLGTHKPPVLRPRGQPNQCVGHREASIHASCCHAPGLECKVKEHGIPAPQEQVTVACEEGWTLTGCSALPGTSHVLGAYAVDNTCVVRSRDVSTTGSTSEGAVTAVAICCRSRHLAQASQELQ
Description: The SPR binding experiments were performed on a Biacore S200 optical biosensor unit at 30° C. A Series S Sensor Chip SA that is designed to bind biotinylated molecules for interaction analysis in Biacore systems was equilibrated at room temperature prior to use. The running buffer for protein tethering and subsequent ligand binding experiments was 10 mM HEPES pH 7.4, 150 mM NaCl, 0.05% (v/v) Tween 20 pH 7.4.
For the surface tethering of PCSK9, biotinylated human PCSK9 (31-692)-Avi-His6 at a concentration of 0.5 mg/mL was used. Prior to the surface tethering, the surface was exposed to a solution of 50 mM NaOH, 500 mM NaCl via 3 consecutive injections of this solution with a contact time of 60 s and a flowrate of 10 μL min- to remove non-conjugated streptavidin. The PCSK9 protein was diluted to a concentration of 20 μg/mL using running buffer and injected with a contact time of 180-300 s and a flowrate of 10 μL min^−1 over a single flow channel (typically flow channel 2 or flow channel 4) with the aim to achieve protein capture levels of >5000 response units (RU). Remaining biotin binding sites were blocked via 2 consecutive injections of a 10 μM D-biotin solution in running buffer with a contact time of 60 s and a flowrate of 10 μL min^−1 over all flow-channels.
The binding experiments were all performed at a flow rate of 30 μL min^−1 and by employing the method of single-cycle kinetics. This approach involves the sequential injection of a compound concentration series without regeneration steps. A contact time between 90-150 s was selected, which was followed by a 40 min dissociation phase to allow for a proper estimation of the dissociation rate constant. Test compounds were delivered in DMSO at a concentration of 10 mM and a digital dispenser HP D300 was used to set up the compound concentration series using 6 concentrations. The tested concentrations have been 30, 100, 300, 1000, 3000 and 10000 nM. Prior to injecting any compound, the surfaces were equilibrated by injecting running buffer over them in three separate pulses. The data collection rate was set to 10 Hz.
The raw sensorgrams of the compound injections were first subjected to reference subtraction (subtracting the signal from flow channel 1 and/or 3 from the signal from channels 2 and/or 4 respectively) and then blank subtraction (subtracting the signal from injecting DMSO controls from the reference subtracted data). The resulting double-referenced sensorgrams were then fitted using a 1:1 binding interaction model using the manufactures software package to extract kinetic- and affinity data.

[5] = target: T2, PCSK9; test: cell-based
Target sequence in this assay (Q8NBP7 31-152): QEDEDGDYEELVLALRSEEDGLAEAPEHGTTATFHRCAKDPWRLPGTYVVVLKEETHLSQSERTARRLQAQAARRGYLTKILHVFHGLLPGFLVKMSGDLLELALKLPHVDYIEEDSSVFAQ
Target sequence in this assay (Q8NBP7 153-692 V474I/G670E): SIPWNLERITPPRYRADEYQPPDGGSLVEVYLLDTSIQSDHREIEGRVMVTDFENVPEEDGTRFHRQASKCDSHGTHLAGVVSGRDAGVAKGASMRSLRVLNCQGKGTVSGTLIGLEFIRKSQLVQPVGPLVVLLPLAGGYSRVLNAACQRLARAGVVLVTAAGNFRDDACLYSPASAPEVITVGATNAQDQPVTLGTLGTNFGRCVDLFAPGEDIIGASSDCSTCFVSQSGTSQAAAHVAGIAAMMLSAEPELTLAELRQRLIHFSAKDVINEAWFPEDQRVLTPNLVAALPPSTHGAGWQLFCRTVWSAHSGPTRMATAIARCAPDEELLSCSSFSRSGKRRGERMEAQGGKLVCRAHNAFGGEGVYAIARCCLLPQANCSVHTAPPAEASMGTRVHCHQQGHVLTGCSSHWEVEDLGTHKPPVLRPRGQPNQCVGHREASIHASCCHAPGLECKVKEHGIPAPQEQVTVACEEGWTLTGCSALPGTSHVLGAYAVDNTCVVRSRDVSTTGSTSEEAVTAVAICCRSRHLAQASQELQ
Description: This assay measures for PCSK9 antagonist activity based on a test compound's capacity to restore LDL-C uptake in HepG2 cells. The assay is based on exogenous PCSK9 and LDL-C complexed with a pH-sensitive dye. Outside the cells, at neutral pH, the pHrodo Red-LDL is dimly fluorescent but upon LDLR mediated endocytosis it fluoresces brightly. PCSK9 traffics the LDLR to intracellular degradation and reduces uptake of LDL-C. Inhibition of PCSK9 reduces LDLR degradation and the increased LDL-C uptake is quantified by fluorescence microscopy.
Cell medium: MEM supplemented with 10% FBS, 1× NEAA and Sodium Pyruvate
Assay medium: OptiMem supplemented with penicillin/streptomycin
Cells: HepG2 (ATCC #HB-8065)
Cryopreserved HepG2 cells were thawed in assay medium and centrifuged for 5 min at 250 g. Supernatant was discarded and the cell pellet resuspended in cell medium and counted with a Nucleocounter. Cells were again centrifuged 5 min at 250 g and the pellet was resuspended to 500000 cells/mL in assay medium. • 2. 20 μL of above cell mix was dispensed into black pclear TC treated 384 well plates with Multidrop Combi and left at room temperature for 20 minutes. • 3. Plates were incubated at 37° C., 5% CO2 for 24 h
Test compounds were prepared in concentration response in DMSO with a half-log dilution factor in DMSO in Echo 384 LDV plates starting at 10 mM. • 2. 30 nL of above test compounds were dispensed with Echo 655 to cells for a top concentration of 10 μM • 3. […] Plates were incubated at 37° C., 5% CO2 for 24 h
10 μL pHrodo Red-LDL in assay medium was dispensed to cells with Multidrop Combi for 6 μg/mL • 2. Plates were incubated at 37° C., 5% CO2 and imaged with the Incucyte S3 after 4 h and 24 h
Image data was processed using Incucyte 2021, a software to identify cells and red fluorescent intensity. Screener was used to further process data. Data was normalized as % effect of the signal between median values of the on-plate controls of DMSO and 100 nM Evolocumab according to the formula % effect=−100*(x−DMSO)/(Evolocumab−DMSO) where x equals the measured signal. Concentration response data of the normalized values were fitted using a four-parameter logistic fit.

| SMILES | IC50 [1] | IC50 [2] | IC50 [3] | Kd [4] | IC50 [5] |
| --- | --- | --- | --- | --- | --- |
| O=c1ccccn1-c1ccc(N[C@H]2CC[C@H](Nc3nc4ccc(CO)cc4o3)C2)nc1 [Example 4, 6′-(((1S,3S)-3-((6-(Hydroxymethyl)benzo[d]oxazol-2-yl)amino)cyclopentyl)amino)-2H-[1,3′-bipyridin]-2-one] | > 40000 nM | > 10 µM | 32.2 nM | 49 nM | – |
| O=c1ccccn1-c1ccc(N[C@H]2CC[C@H](Nc3nc4ccccc4[nH]3)C2)nc1 [Example 10, 6′-(((1S,3S)-3-((1H-Benzo[d]imidazol-2-yl)amino)cyclopentyl)amino)-2H-[1,3′-bipyridin]-2-one] | 4000 nM | > 10 µM | 2470 nM | 1550 nM | – |
| O=c1ccccn1-c1ccc(N[C@H]2CC[C@H](Nc3nc4cccnc4o3)C2)nc1 [Example 11, 6′-(((1S,3S)-3-(Oxazolo[5,4-b]pyridin-2-ylamino)cyclopentyl)amino)-2H-[1,3′-bipyridin]-2-one] | > 40000 nM | > 10 µM | 28 nM | 24 nM | – |
| COc1cccn(-c2ccc(N[C@H]3CC[C@H](Nc4nc5cccnc5o4)C3)nc2)c1=O [Example 12, 3-Methoxy-6′-(((1S,3S)-3-(oxazolo[5,4-b]pyridin-2-ylamino)cyclopentyl)amino)-2H-[1,3′-bipyridin]-2-one] | > 40000 nM | > 10 µM | 3.5 nM | 3 nM | 158 nM |
| N#Cc1cccn(-c2ccc(N[C@H]3CC[C@H](Nc4nc5cccnc5o4)C3)nc2)c1=O [Example 15, 6′-(((1S,3S)-3-(Oxazolo[5,4-b]pyridin-2-ylamino)cyclopentyl)amino)-2-oxo-2H-[1,3′-bipyridine]-3-carbonitrile] | > 40000 nM | > 10 µM | 3.1 nM | 3 nM | 76 nM |
| Cn1c(=O)n(-c2ccc(N[C@H]3CC[C@H](Nc4nc5cccnc5o4)C3)nc2)c2ncccc21 [Example 18, 1-Methyl-3-(6-(((1S,3S)-3-(oxazolo[5,4-b]pyridin-2-ylamino)cyclopentyl)amino)pyridin-3-yl)-1,3-dihydro-2H-imidazo[4,5-b]pyridin-2-one] | > 40000 nM | > 10 µM | 2.3 nM | 3 nM | 52 nM |
| O=c1ccccn1-c1ccc(N[C@H]2CC[C@H](Nc3nc4cccnc4s3)C2)nc1 [Example 19, 6′-(((1S,3S)-3-(Thiazolo[5,4-b]pyridin-2-ylamino)cyclopentyl)amino)-2H-[1,3′-bipyridin]-2-one] | > 40000 nM | > 10 µM | 4.4 nM | 4 nM | 157 nM |
| O=c1ccccn1-c1ccc(N[C@H]2CC[C@H](Nc3nc4ncccc4s3)C2)nc1 [Example 20, 6′-(((1S,3S)-3-(Thiazolo[4,5-b]pyridin-2-ylamino)cyclopentyl)amino)-2H-[1,3′-bipyridin]-2-one] | > 40100 nM | > 10 µM | 603 nM | 672 nM | – |
| COc1cccn(-c2ccc(N[C@H]3CC[C@H](Nc4nc5cccnc5s4)C3)nc2)c1=O [Example 21, 3-Methoxy-6′-(((1S,3S)-3-(thiazolo[5,4-b]pyridin-2-ylamino)cyclopentyl)amino)-2H-[1,3′-bipyridin]-2-one] | > 40000 nM | > 10 µM | 1.5 nM | 0.5 nM | 100 nM |
| O=c1c(Cl)cccn1-c1ccc(N[C@H]2CC[C@H](Nc3nc4cccnc4s3)C2)nc1 [Example 24, 3-Chloro-6′-(((1S,3S)-3-(thiazolo[5,4-b]pyridin-2-ylamino)cyclopentyl)amino)-2H-[1,3′-bipyridin]-2-one] | 13900 nM | > 10 µM | 0.7 nM | 0.1 nM | 76 nM |
| COc1ccc(=O)n(-c2ccc(N[C@H]3CC[C@H](Nc4nc5cccnc5s4)C3)nc2)c1 [Example 25, 5-Methoxy-6′-(((1S,3S)-3-(thiazolo[5,4-b]pyridin-2-ylamino)cyclopentyl)amino)-2H-[1,3′-bipyridin]-2-one] | > 40000 nM | 0.053 µM | 5.6 nM | 4 nM | 51 nM |
| O=c1ccc2cccnc2n1-c1ccc(N[C@H]2CC[C@H](Nc3nc4cccnc4[nH]3)C2)nc1 [Example 34, 1-(6-(((1S,3S)-3-((3H-Imidazo[4,5-b]pyridin-2-yl)amino)cyclopentyl)amino)pyridin-3-yl)-1,8-naphthyridin-2(1H)-one] | > 40000 nM | > 10 µM | 1.2 nM | 1 nM | 98 nM |
| O=c1ccccn1-c1ccc(N[C@H]2CC[C@H](Nc3nc4cc(OC(F)F)cnc4[nH]3)C2)nc1 [Example 60, 6′-(((1S,3S)-3-((6-(Difluoromethoxy)-3H-imidazo[4,5-b]pyridin-2-yl)amino)cyclopentyl)amino)-2H-[1,3′-bipyridin]-2-one] | 33000 nM | – | 0.6 nM | 1 nM | 41 nM |
| COc1cccc(F)c1-c1ccc(N[C@H]2CC[C@H](Nc3nc4cccnc4[nH]3)C2)nc1 [Example 67, (1S,3S)—N^1-(5-(2-Fluoro-6-methoxyphenyl)pyridin-2-yl)-N^3-(3H-imidazo[4,5-b]pyridin-2-yl)cyclopentane-1,3-diamine] | 3980 nM | > 10 µM | 18.1 nM | 57 nM | – |
| O=c1ccc(OC(F)F)cn1-c1ccc(N[C@H]2CC[C@H](Nc3nc4cccnc4s3)C2)nc1 [Example 77, 5-(Difluoromethoxy)-6′-(((1S,3S)-3-(thiazolo[5,4-b]pyridin-2-ylamino)cyclopentyl)amino)-2H-[1,3′-bipyridin]-2-one] | 10400 nM | 4.72 µM | 4.2 nM | – | 204 nM |
| O=c1ccc(OC(F)F)cn1-c1ccc(N[C@H]2CC[C@H](Nc3nc4cccnc4o3)C2)nc1 [Example 78, 5-(Difluoromethoxy)-6′-(((1S,3S)-3-(oxazolo[5,4-b]pyridin-2-ylamino)cyclopentyl)amino)-2H-[1,3′-bipyridin]-2-one] | 39600 nM | > 10 µM | 18.9 nM | – | 367 nM |
| O=c1c(OC(F)F)cccn1-c1ccc(N[C@H]2CC[C@H](Nc3nc4cccnc4o3)C2)nc1 [Example 79, 3-(Difluoromethoxy)-6′-(((1S,3S)-3-(oxazolo[5,4-b]pyridin-2-ylamino)cyclopentyl)amino)-2H-[1,3′-bipyridin]-2-one] | 4570 nM | > 10 µM | 4.1 nM | – | 123 nM |
| O=c1ccccn1-c1ccc(N[C@H]2CC[C@H](Nc3nc4nccnc4[nH]3)C2)nc1 [Example 80, 6′-(((1S,3S)-3-((1H-Imidazo[4,5-b]pyrazin-2-yl)amino)cyclopentyl)amino)-2H-[1,3′-bipyridin]-2-one] | > 40000 nM | 0.305 µM | 5.1 nM | – | 158 nM |
| O=c1c(OC(F)F)cccn1-c1ccc(N[C@H]2CC[C@H](Nc3nc4cccnc4s3)C2)nc1 [Example 81, 3-(Difluoromethoxy)-6′-(((1S,3S)-3-(thiazolo[5,4-b]pyridin-2-ylamino)cyclopentyl)amino)-2H-[1,3′-bipyridin]-2-one] | 6120 nM | > 10 µM | 1.5 nM | – | 108 nM |
